Results published in US11464795B2, “Saponin compound targeting PD-1 and application thereof” (EAST CHINA UNIVERSITY OF SCIENCE AND TECHNOLOGY, priority 2017, dated 2022).

Legend:
[1] = target: T1, recombinant human PD-1 protein (Homo sapiens, UniProt Q15116); experiment: SPR determination of binding constants between saponin natural products and PD-1 protein; conditions: PD-1 coupled to CM7 chip, steady-state fitting, read-out: Binding affinity KD
T1 construct: amino acids 34-150 of human PD-1; made in house; host or cells: E. coli BL21 (DE3), pET-28a
Experimental: Surface plasmon resonance (SPR) was used to determine the binding affinity between natural products and PD-1 protein. Specific experimental steps are as follows: Firstly, the purified protein was exchanged into 50 mM Hepes, pH 8.0, 250 mM NaCl, 1 mM DTT buffer, and diluted to 50 μg/ml with sodium acetate pH 4.5. The protein was coupled to CM7 chip with a coupling kit for 600 s at a flow rate of 10 μl/min. The final coupling amount was about 13000 RU. After the coupling was completed, the CM7 chip was equilibrated to a stable state in a buffer solution (1.05×PBS, 0.05% P20). […] The final data was analyzed by BIAevaluation2.0 software, and KD values were obtained by steady-state fitting.

[2] = target: T2, human PD-1 binding to human PD-L1 (Homo sapiens, UniProt Q15116); experiment: SPR competition of compounds with PD-L1 protein for binding PD-1; conditions: PD-L1 on CM5 chip, compound pre-incubated with 3 μM PD-1 protein
T2 construct: amino acids 34-150 of human PD-1; made in house; PD-L1: purchased from Beijing Yiqiao Shenzhou Biotechnology Co., Ltd., no catalogue number
Experimental: Based on the results in the above examples, the present inventors investigated whether the compound can competite with PD-L1 for binding PD-1, and thus block PD-1 from binding PD-L1. PD-L1 protein was purchased from Beijing Yiqiao Shenzhou Biotechnology Co., Ltd. Specific experimental steps are as follows: 50 μg/ml PD-L1 protein was coupled to CM5 chip by amino coupling method. The coupling amount was about 3780 RU. Compounds of different concentrations were incubated with 3 μM PD-1 protein on ice for 30 min, and flowed across the surface of the chip along with the running buffer (1.05×PBS, 0.05% P20, 1% DMSO) at a flow rate of 30 μL/min, for binding time of 90 s and dissociation time of 120 s. PD-1 protein bound to PD-L1 protein on the chip decreases as the concentration of the compound increases, therefore, the response value decreases. The results of this experiment indicate that compounds can block PD-1 from binding PD-L1.

[3] = test system: Jurkat T cells; experiment: Detection of IL-2 secretion in T cells by ELISA (BxPC-3 / Jurkat T co-culture); type: cell-based; conditions: for Increase of the amount of IL-2 produced by Jurkat T cells: 50 μM compound, BxPC-3 tumor cells and Jurkat T cells co-cultured 3:1, 48 h, ELISA; for Restoration of the ability of depleted Jurkat T cells to secrete IL-2: FIG. 5 legend, result in words
Experimental: The inventors selected several compounds for the evaluation experiment of cell function. We co-cultured stimulated BxPC-3 tumor cells and activated Jurkat T cells in a 96-well plate at a ratio of 3:1. Jurkat T cells were cultured alone as a negative control. 50 μM of compound was added into the experimental group, and a D-hank's solution with the same DMSO content was used as a negative control. Each group was incubated in a carbon dioxide cell incubator for 48 h. The supernatant medium was collected and detected for the amount of IL-2 by an ELISA kit. Experiments were performed in triplicate. After tumor cells were co-cultured with T cells, the amount of IL-2 produced by the T cells was suppressed by about 55%. After 50 μM of compound 6 was added, the amount of IL-2 produced by Jurkat T cells can be increased by about 30%; after 50 μM of compound 8 was added, the amount of IL-2 produced by Jurkat T cells can be increased by about 1^7%; after 50 μM of compound 10 was added, the amount of IL-2 produced by Jurkat T cells can be increased by about 30%; after 50 μM of compound 11 was added, the amount of IL-2 produced by Jurkat T cells can be increased by about 12%; and after 50 μM of compound 13 was added, the amount of IL-2 produced by Jurkat T cells can be increased by about 23%. Such effects can be achieved in three repeated experiments. The results of this experiment indicate that the compounds can, to a certain extent, restore the function of T cells.

T2 sequence (Q15116 34-150): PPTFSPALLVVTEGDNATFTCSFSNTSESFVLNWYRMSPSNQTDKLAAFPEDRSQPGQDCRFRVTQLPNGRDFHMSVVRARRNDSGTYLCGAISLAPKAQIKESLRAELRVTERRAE
T1 sequence (Q15116 34-150): as above

Row | SMILES | Kd [1] [µM] | Blocking of human PD-1 binding to human PD-L1 [2] | Increase of the amount of IL-2 produced by Jurkat T cells [3] | Restoration of the ability of depleted Jurkat T cells to secrete IL-2 [3]
1 | CC1(C)CC[C@]2(C(=O)O[C@@H]3O[C@H](CO)[C@@H](O)[C@H](O)[C@H]3O)CC[C@]3(C)C(=CC[C@@H]4[C@@]5(C)CC[C@H](OC6O[C@H](C(=O)O)[C@@H](O)[C@H](O)[C@H]6OC6O[C@H](CO)[C@@H](O)[C@H](O)[C@H]6O)C(C)(C)[C@@H]5CC[C@]43C)[C@@H]2C1 (stereo partly drawn) [Compound 1] | 2.23 | can block human PD-1 from binding to human PD-L1 | – | –
2 | C[C@@H]1OC(O[C@H]2C(O[C@H]3CC[C@@]4(C)C(CC[C@]5(C)C4CC=C4C6CC(C)(C)CC[C@]6(C(=O)O)CC[C@]45C)[C@]3(C)CO)OC[C@H](OC3O[C@H](CO)[C@@H](O)[C@H](O)[C@H]3O)[C@@H]2O)[C@H](O)[C@H](O)[C@H]1O (stereo partly drawn) [Compound 3] | 2.1 | – | – | –
3 | CC1(C)CC[C@]2(C(=O)O)CC[C@]3(C)C(=CC[C@@H]4[C@@]5(C)CC[C@H](O)[C@@](C)(CO)[C@@H]5CC[C@]43C)[C@@H]2C1 [Compound 5] | 5.36 | can block human PD-1 from binding to human PD-L1 | – | –
4 | C[C@@H]1CC[C@@]2(C(=O)O)CC[C@]3(C)C(=CCC4[C@@]5(C)C[C@@H](O)[C@H](O)C(C)(C)C5CC[C@]43C)C2[C@H]1C (stereo partly drawn) [Compound 8] | 5.02 | can block human PD-1 from binding to human PD-L1 | – | can restore the ability of depleted Jurkat T cells to secrete IL-2
5 | CC1(C)CC[C@]2(C(=O)O)CC[C@]3(C)C(=CCC4[C@@]5(C)CC[C@H](O)C(C)(C)C5CC[C@]43C)C2C1 (stereo partly drawn) [Compound 10] | 2.71 | can block human PD-1 from binding to human PD-L1 | about 30% | can restore the ability of depleted Jurkat T cells to secrete IL-2
6 | CC1(C)CCC2(C(=O)O)CC[C@]3(C)C(=CCC4[C@@]5(C)C[C@@H](O)[C@H](O)C(C)(C)C5CC[C@]43C)C2C1 (stereo partly drawn) [Compound 12] | – | can block human PD-1 from binding to human PD-L1 | – | –
7 | C[C@H]1[C@H](C)CC[C@]2(C(=O)O)CC[C@]3(C)C(=CC[C@@H]4[C@@]5(C)C[C@@H](O)[C@@H](O)C(C)(C)[C@@H]5CC[C@]43C)[C@H]12 [Compound 13] | 1.77 | can block human PD-1 from binding to human PD-L1 | about 23% | can restore the ability of depleted Jurkat T cells to secrete IL-2

Further lines, with some results ahead:

Row | Kd [1] [µM] | SMILES | Blocking of human PD-1 binding to human PD-L1 [2] | Increase of the amount of IL-2 produced by Jurkat T cells [3] | Restoration of the ability of depleted Jurkat T cells to secrete IL-2 [3]
8 | 0.44 | C[C@@H]1CC[C@]2(C(=O)O)CC[C@]3(C)C(=CC[C@@H]4[C@@]5(C)CC[C@H](O[C@@H]6OC[C@H](O)[C@H](O)[C@H]6O)C(C)(C)[C@@H]5CC[C@]43C)[C@@H]2[C@]1(C)O [Compound 2] | can block human PD-1 from binding to human PD-L1 | – | –
9 | 0.56 | CC1(C)CC[C@]2(C(=O)O[C@@H]3O[C@H](CO)[C@@H](O)[C@H](O)[C@H]3O)CC[C@]3(C)C(=CCC4[C@@]5(C)CCC(OC6O[C@H](C(=O)O)[C@@H](O)[C@H](O)[C@H]6O)C(C)(C)C5CC[C@]43C)[C@H]2C1 (stereo partly drawn) [Compound 4] | can block human PD-1 from binding to human PD-L1 | – | –
10 | 0.04 | CC1(C)CC[C@]2(C(=O)O)CC[C@]3(C)C(=CC[C@@H]4[C@@]5(C)CC[C@H](O[C@@H]6O[C@H](C(=O)O)[C@@H](O)[C@H](O[C@@H]7OC[C@@H](O)[C@H](O)[C@H]7O)[C@H]6O)C(C)(C)[C@@H]5CC[C@]43C)[C@@H]2C1 [Compound 6] | can block human PD-1 from binding to human PD-L1 | about 30% | can restore the ability of depleted Jurkat T cells to secrete IL-2
11 | 2.19 | C[C@@H]1O[C@@H](O[C@H]2[C@H](O[C@H]3[C@H](O[C@H]4CC[C@@]5(C)[C@@H](CC[C@]6(C)[C@@H]5CC=C5[C@@H]7CC(C)(C)C[C@@H](O)[C@]7(C)CC[C@]56C)[C@@]4(C)CO)O[C@H](C(=O)O)[C@@H](O)[C@@H]3O)O[C@H](CO)[C@H](O)[C@@H]2O)[C@H](O)[C@H](O)[C@H]1O [Compound 7] | can block human PD-1 from binding to human PD-L1 | – | –
12 | 4.92 | C[C@@H]1CC[C@]2(C(=O)O)CC[C@]3(C)C(=CCC4[C@@]5(C)CC[C@H](O)C(C)(C)C5CC[C@]43C)C2[C@H]1C (stereo partly drawn) [Compound 9] | can block human PD-1 from binding to human PD-L1 | – | –
13 | 1.4 | C[C@H]1[C@H](C)CC[C@]2(C(=O)O)CC[C@]3(C)C(=CC[C@@H]4[C@@]5(C)C[C@@H](O)[C@H](O)C(C)(C)[C@@H]5CC[C@]43C)[C@H]12 [Compound 11] | can block human PD-1 from binding to human PD-L1 | about 12% | can restore the ability of depleted Jurkat T cells to secrete IL-2
